Earlier results on 2 molecules are cited in US20130035357A1, “Compositions and Methods for Preventing Joint Destruction in Osteoarthritis” (TRUSTEES OF DARTMOUTH COLLEGE, priority 2010, published 2013).

The test system of series [1] is retinoid acid receptors (RARs; e.g., RARα, RARβ, and RARγ).
For series [2], the system named is IL-1β-stimulated SW-1353 cells.
In series [3] the test system is RXRα, RXRβ, and RXRγ receptors.
Setting [4] is: human chondrocytic cells in vitro.
The mark [5] stands for this setting: in vitro, by decreasing the transcription rate of the gene.

SMILES strings stand for the structures.

As for `C=C(c1ccc(C(=O)O)cc1)c1cc2c(cc1C)C(C)(C)CCC2(C)C` [Bexarotene, bexarotene], in series [1], the “activity to bind retinoid acid receptors and to transactivate the related RAR genes” value was “negligible activity”.
As for `Cc1cc2c(cc1C1(c3ccc(C(=O)O)cn3)CC1)C(C)(C)CCC2(C)C` [LG268], the “breakdown of collagen by the cells” value in series [2] (setting [4]) was “prevented breakdown of collagen”. The “ability of IL-1β-stimulated SW-1353 cells to degrade collagen matrix” value in series [2] (in vitro) is “blunt”. In addition, the “potency as an RXR agonist relative to bexarotene” value in series [3] (compared with bexarotene) was “almost an order of magnitude more potent than bexarotene”. Moreover, in series [3] (comparison between the three RXR subtypes), the “potency as an agonist across RXRα, RXRβ, and RXRγ receptors” value is listed as “equal potency”. In addition, the “production of mRNA and protein for MMP-1” value with MMP-1 (setting [4]) is “inhibit”. Besides, the “inhibition of proinflammatory cytokine-induced upregulation of MMP-1” value in the series with MMP-1 (setting [5]) is reported as “inhibit”. In addition, the “production of mRNA and protein for MMP-13” value in the series with MMP-13 (setting [4]) is given as “inhibit”. Besides, the “inhibition of proinflammatory cytokine-induced upregulation of MMP-13” value with MMP-13 (setting [5]) is “inhibit”.
